Reference: patent EP4806435A1, “DIHYDROCHROMENE-DERIVATIVE-CONTAINING THERAPEUTIC AGENT FOR CANCER” (Sumitomo Pharma Co., Ltd., priority 2023, dated 2025)

What was measured:
[1] = system: MC38 cells; test: In vivo efficacy, combination with ipilimumab, MC38 tumors; set-up: species or system C57BL/6J mice; settings: Compound 1 3 mg/kg or 30 mg/kg once daily + ipilimumab 5 mg/kg once weekly; MC38, subcutaneous
Procedure: MC38 cells (3 x 10^5) were subcutaneously implanted into C57BL/6J mice (n = 6) to establish tumors. On day 12 after implantation, administration was initiated with Compound 1 at 3 mg/kg or 30 mg/kg (once daily) and ipilimumab (an anti-CTLA-4 antibody) at 5 mg/kg (once weekly), and the efficacy of each monotherapy and the combination therapy was compared.
Tumor volume was calculated using the following formula based on the short and long diameters of the tumor measured with digital calipers (Mitutoyo). [formula]
The antitumor effect was evaluated by comparing the vehicle-treated control group with the test substance-treated group, and calculating T/C using the following formula. [formula]

[2] = system: IDH1 R132H mutant U-87 cells; test: Cytotoxicity assay, sphere culture with LDL supplementation (ATP); format: cell-based, human; settings: 1 µM; 7 days sphere culture; LDL 5 µg/mL
Procedure: U-87 cells were established with a tetracycline-inducible IDH1 R132H mutation expression system. The cells were cultured in the presence of doxycycline (1 µM), a tetracycline derivative, for 5 days to induce the IDH1 R132H mutation. After induction of the mutation, the cells were transferred to sphere culture medium (containing B-27 supplement, epidermal growth factor, cell proliferation factors, insulin, and low-density lipoprotein [LDL]), and cultured for 7 days under sphere-forming conditions after the addition of Compound 1 (1 µM). The LDL concentration in the medium was 5 µg/mL. After incubation, cellular ATP levels were quantified as an indicator of cell viability, and cell viability was calculated as the ratio relative to ATP levels under vehicle-only conditions. Using this approach, the cytotoxic effects of the present compound under LDL-supplemented conditions were compared between wild-type (doxycycline-) and mutant (doxycycline+) cells.

[3] = system: recurrent malignant glioma classified as WHO grade III or IV; test: Phase 1 clinical trial: preliminary antitumor activity (RANO criteria); format: in vivo, human
Procedure: Each treatment cycle was defined as 28 days, during which safety and treatment response were evaluated. Administration to each subject was continued until unacceptable toxicity occurred, consent was withdrawn, the subject was lost to follow-up, or discontinuation was determined by the investigator and/or the sponsor.

## CC1(C)Oc2cc(Cl)ccc2[C@@H]2OCC3(CCN(CCn4ccnc4)CC3)C[C@H]21 [Compound 1, (4'aR,10'bR)-8'-chloro-1-[2-(1H-imidazol-1-yl)ethyl]-5',5'-dimethyl-4'a,10'b-dihydro-2'H,4'H,5'H-spiro[piperidine-4,3'-pyrano[3,2-c][1]benzopyran] diphosphate]
[1]
  antitumor effect in combination with ipilimumab: remarkably pronounced antitumor effect
[2]
  cytotoxicity in mutant versus wild-type cells: statistically-significantly stronger cytotoxicity in IDH1 R132H mutant cells compared with wild-type cells
[3]; 180 mg QD and 240 mg QD
  stable disease: prolonged stable disease (SD) was observed
[3]; 360 mg QD and 480 mg daily (240 mg BID)
  discontinuation due to objective disease progression (RANO criteria): most patients discontinued administration of Compound 1 within two months
[3]; Dose Escalation Part, as of September 2023
  patients with preliminary antitumor activity (monotherapy): 4 patients
[3]; first patient with IDH-mutant WHO Grade III glioma, 20 mg QD
  tumor reduction (enhancing lesions, RANO criteria; reduction from baseline): 22%
[3]; patient with 22% tumor reduction
  time remained on study: 15 months
[3]; patient with 100% tumor reduction, as of September 2023
  time remained on study: 13 months
[3]; patient with 100% tumor reduction, cutoff April 21, 2024
  time remained on study: 20 months
[3]; patient with WHO grade III astrocytoma with IDH mutation, 120 mg, after more than one year of treatment
  response: complete response (CR)
[3]; second patient with IDH-mutant WHO Grade III glioma, 120 mg QD
  tumor reduction (enhancing lesions, RANO criteria; reduction from baseline): 100%
